The source of these data is ChEMBL document CHEMBL1201862, “PubChem BioAssay data set” (2004).

The EC50 is the concentration giving half of the maximal effect. What is called CC50 is the concentration at which the toxic effect on the cells reaches its halfway point. Usually AC50 stands for the concentration at which the activity in the assay is half-maximal.

Molecules are shown by their SMILES. Activity calls are given as the source filed them.

Assay [1] concerns the target T1, Low molecular weight phosphotyrosine protein phosphatase (Homo sapiens, UniProt P24666).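 Further: Dose-response confirmation assay measuring inhibition of LMPTP enzyme activity by fluorescence intensity read-out.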
T1 sequence (P24666 whole entry): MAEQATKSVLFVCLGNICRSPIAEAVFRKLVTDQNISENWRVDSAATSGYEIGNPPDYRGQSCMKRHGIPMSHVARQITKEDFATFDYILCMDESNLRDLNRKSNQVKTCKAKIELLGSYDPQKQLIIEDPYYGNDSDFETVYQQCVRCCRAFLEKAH
The format is functional. Particulars: read-out: IC50_Mean.

Assay [2] addresses 5-hydroxytryptamine receptor 5A (Homo sapiens, UniProt P47898). The experiment in a line: Counterscreen for agonists of OPRM1-OPRD1 heterodimerization: luminescence-based cell-based high throughput dose response assay to identify agonists of 5-hydroxytryptamine (serotonin) 5A receptor (HTR5A). [Related pubchem assays (depositor defined):AID504326, AID504355, AID504692, AID504904, AID504905]. Type of assay: functional. Background: Counterscreens check selectivity or assay interference.

In assay [3] the target is T2, Short transient receptor potential channel 4 (Mus musculus, UniProt Q9QUQ5).
T2 sequence (Q9QUQ5 whole entry): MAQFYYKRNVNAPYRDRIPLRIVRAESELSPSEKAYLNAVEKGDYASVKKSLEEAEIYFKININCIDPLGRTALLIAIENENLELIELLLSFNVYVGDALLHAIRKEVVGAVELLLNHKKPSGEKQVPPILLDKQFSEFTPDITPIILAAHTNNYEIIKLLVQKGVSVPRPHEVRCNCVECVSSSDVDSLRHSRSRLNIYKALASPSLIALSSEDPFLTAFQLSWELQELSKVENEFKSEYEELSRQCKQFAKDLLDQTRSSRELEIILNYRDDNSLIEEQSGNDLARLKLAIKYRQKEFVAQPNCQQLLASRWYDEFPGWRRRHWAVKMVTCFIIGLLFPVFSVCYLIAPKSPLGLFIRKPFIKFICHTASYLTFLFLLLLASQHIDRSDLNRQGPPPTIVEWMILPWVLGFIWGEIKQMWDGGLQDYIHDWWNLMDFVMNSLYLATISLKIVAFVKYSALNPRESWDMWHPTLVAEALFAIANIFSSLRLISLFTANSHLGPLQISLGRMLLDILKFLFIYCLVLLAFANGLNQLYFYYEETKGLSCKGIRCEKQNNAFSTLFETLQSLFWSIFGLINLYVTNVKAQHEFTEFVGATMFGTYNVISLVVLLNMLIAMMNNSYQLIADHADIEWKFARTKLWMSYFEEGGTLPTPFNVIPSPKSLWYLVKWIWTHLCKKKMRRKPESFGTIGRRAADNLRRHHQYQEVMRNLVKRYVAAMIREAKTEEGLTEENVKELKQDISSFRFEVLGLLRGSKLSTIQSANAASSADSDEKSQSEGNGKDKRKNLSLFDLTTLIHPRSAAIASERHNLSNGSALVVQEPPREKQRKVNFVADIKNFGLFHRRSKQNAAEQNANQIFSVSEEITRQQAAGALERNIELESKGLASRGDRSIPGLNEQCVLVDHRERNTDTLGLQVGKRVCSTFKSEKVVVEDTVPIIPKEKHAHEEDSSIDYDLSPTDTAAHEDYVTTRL
The experiment in a line: mouse TRPC4 channel activators, dose response, cell-based, HEK293 TRPC4/mu-opioid, Fluo-4 calcium (AID 434937). Type of assay: functional.

For assay [4], the target named is Delta-type opioid receptor (Homo sapiens, UniProt P41143). The experiment in a line: Counterscreen for agonists of heterodimerization of the mu 1 (OPRM1) and delta 1 (OPRD1) opioid receptors: Luminescence-based cell-based high throughput dose response assay to identify agonists of OPRD1 homodimerization. [Related pubchem assays (depositor defined):AID504326, AID504355, AID504692, AID504904, AID504905]. The format is functional.
Chain of Delta-type opioid receptor (P41143 whole entry): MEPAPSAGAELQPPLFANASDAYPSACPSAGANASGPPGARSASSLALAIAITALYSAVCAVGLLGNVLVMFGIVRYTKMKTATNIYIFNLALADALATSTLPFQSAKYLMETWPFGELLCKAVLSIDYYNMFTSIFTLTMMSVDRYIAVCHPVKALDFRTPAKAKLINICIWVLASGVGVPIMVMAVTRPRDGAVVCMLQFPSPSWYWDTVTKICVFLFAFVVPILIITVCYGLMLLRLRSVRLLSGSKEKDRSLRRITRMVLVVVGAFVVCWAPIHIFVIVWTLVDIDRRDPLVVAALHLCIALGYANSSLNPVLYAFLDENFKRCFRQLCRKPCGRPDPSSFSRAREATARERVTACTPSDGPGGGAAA

Assay [5] deals with Mu-type opioid receptor (Homo sapiens, UniProt P35372). The experiment in a line: Counterscreen for agonists of heterodimerization of the mu 1 (OPRM1) and delta 1 (OPRD1) opioid receptors: Luminescence-based cell-based high throughput dose response assay to identify agonists of OPRM1 homodimerization. Type of assay: functional.
Chain of Mu-type opioid receptor (P35372 whole entry): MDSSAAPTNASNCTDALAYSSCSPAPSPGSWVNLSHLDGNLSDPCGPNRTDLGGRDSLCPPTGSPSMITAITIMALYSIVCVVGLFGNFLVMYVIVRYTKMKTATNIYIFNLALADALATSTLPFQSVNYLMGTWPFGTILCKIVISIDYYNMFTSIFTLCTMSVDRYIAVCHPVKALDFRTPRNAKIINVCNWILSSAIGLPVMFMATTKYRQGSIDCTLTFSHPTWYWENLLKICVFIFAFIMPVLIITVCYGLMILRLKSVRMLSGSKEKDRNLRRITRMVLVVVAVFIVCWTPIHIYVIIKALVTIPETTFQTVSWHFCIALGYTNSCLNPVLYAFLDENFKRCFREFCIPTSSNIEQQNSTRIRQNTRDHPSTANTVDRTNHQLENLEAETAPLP
Assay [6] is described as follows: ADAM10 protease inhibitors, dose response, selectivity assay for ADAM17 exosite inhibitor project, biochemical, FRET peptide substrate, recombinant human ADAM10 (AID 743259).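 Further: ADAM10 enzyme cleaving a FRET peptide substrate.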
The target in assay [7] is Disintegrin and metalloproteinase domain-containing protein 17 (Homo sapiens, UniProt P78536). The experiment in a line: exosite inhibitors of ADAM17, dose response, biochemical (AID 743260).
Chain of Disintegrin and metalloproteinase domain-containing protein 17 (P78536 whole entry, the tested form may be a part): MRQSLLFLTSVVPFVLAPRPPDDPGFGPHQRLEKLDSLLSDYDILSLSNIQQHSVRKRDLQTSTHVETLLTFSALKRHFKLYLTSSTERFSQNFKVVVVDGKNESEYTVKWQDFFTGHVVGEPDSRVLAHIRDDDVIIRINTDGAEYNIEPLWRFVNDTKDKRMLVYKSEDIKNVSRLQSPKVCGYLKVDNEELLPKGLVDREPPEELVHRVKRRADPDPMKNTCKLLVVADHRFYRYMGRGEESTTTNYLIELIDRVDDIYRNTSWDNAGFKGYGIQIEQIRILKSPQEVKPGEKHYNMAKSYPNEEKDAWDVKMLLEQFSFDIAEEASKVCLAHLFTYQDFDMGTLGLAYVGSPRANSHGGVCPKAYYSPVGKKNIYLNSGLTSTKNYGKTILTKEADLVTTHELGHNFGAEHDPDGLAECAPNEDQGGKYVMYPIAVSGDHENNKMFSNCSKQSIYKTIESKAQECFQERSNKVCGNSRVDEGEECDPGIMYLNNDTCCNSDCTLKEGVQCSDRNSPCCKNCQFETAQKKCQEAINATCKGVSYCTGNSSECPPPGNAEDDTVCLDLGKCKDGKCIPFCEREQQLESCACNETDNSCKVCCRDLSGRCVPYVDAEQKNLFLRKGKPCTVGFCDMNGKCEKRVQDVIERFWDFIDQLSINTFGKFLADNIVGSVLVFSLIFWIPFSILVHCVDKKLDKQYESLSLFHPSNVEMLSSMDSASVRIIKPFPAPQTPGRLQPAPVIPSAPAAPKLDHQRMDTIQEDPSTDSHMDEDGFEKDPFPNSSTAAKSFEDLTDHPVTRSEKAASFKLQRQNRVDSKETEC
Assay [8] is described as follows: THP-1 cell cytotoxicity, dose response, cytotoxicity control for Vif-APOBEC3G degradation inhibitor project, THP-1 cells (AID 1117359). Type of assay: functional. The following applies: Human immunodeficiency virus 1, THP-1.
Assay [9] has as its target Induced myeloid leukemia cell differentiation protein Mcl-1 (Homo sapiens, UniProt Q07820). Type of assay: functional.
Assay [10] is described as follows: NIH:OVCAR-3 ovarian cancer cell cytotoxicity, dose response, PAX8 inhibitor project, plate reader, dry powder samples (AID 743044). The format is functional, cell-based.
Assay [11] has as its target Paired box protein Pax-8 (Homo sapiens, UniProt Q06710). The experiment in a line: inhibitors of PAX8-driven TPO luciferase reporter, dose response, RMG-I cells, cherry-pick (AID 687027).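 Further: luciferase reporter driven by Pax8 target thyroperoxidase promoter measured by SteadyGlo luminescence.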 The format is functional, cell-based. On the technique in general: Reporter assays use an easily measured gene product as a stand-in for the process of interest.
The nature of assay [12]: cytotoxicity in OVCAR8 ovarian cancer cells, dose response, PAX8 project, cell-based, plate reader, dry powder samples (AID 743197). Particulars: OVCAR-8. Type of assay: functional.
Assay [13] has as its target Prothrombin (Homo sapiens, UniProt P00734). The experiment in a line: Thrombin 1536 HTS Dose Response Confirmation. [Related pubchem assays: 1046 (Thrombin 1536 HTS; hits were confirmed in this assay)]. Type of assay: functional.
Assay [14] addresses T3, Methionyl-tRNA synthetase, putative (Trypanosoma brucei brucei, UniProt Q38C91).
T3 sequence (Q38C91 whole entry): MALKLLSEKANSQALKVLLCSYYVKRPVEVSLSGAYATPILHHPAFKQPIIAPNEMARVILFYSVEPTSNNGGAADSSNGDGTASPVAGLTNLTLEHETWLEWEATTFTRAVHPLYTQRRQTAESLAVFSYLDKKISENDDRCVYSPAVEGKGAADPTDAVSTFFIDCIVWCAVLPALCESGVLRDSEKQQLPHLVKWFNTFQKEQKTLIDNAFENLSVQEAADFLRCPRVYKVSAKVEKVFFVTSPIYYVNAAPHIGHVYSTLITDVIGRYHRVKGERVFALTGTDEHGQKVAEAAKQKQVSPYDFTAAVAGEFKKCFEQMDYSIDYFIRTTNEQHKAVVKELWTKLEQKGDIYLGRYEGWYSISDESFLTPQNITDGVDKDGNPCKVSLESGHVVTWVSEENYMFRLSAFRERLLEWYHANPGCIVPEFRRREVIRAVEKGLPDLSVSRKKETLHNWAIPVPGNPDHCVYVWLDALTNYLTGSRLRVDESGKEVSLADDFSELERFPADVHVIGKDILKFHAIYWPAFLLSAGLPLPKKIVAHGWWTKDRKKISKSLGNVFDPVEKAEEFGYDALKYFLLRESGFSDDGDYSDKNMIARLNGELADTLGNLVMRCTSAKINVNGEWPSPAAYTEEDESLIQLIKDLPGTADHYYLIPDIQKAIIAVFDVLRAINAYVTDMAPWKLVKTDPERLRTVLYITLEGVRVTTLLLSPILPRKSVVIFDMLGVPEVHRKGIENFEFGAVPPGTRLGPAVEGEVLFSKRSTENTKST
The format is functional, Trypanosoma brucei brucei strain 927/4 GUTat10.1.

The target of assay [15] is T3, Methionyl-tRNA synthetase, putative. The format is functional, Trypanosoma brucei brucei strain 927/4 GUTat10.1. This is another data set of the same source.
The nature of assay [16]: Counterscreen for inhibitors of Trypanosoma brucei methionyl tRNA synthetase (MetRS): Luminescence-based cell-based high throughput dose response assay to identify compounds that are cytotoxic to Jurkat human T lymphocyte cells. The format is functional.
A short description of assay [17]: P. falciparum 3D7-ScDHODH growth inhibitors, dose response, SYBR Green, dry powder samples (AID 1159570).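 Further: parasite growth measured after 72 hours of compound exposure.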 The format is functional, cell-based.
Assay [18] is described as follows: P. falciparum Dd2 growth inhibitors, dose response, SYBR Green, cherry-picked samples (AID 1159567). The format is functional, cell-based.
Assay [19] can be described thus: HepG2 cell cytotoxicity, dose response, cytotoxicity control, plate reader, dry powder samples (AID 1159569).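 Further: inhibitor potency with signal falling toward the positive control level.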 The format is functional, cell-based.
The nature of assay [20]: P. falciparum ATP4 D1247Y mutant growth inhibitors, dose response, NITD609-resistant line, SYBR Green, dry powder (AID 1159571).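 Further: parasites synchronized at ring stage by sorbitol before testing.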 Type of assay: functional, cell-based.
The nature of assay [21]: P. falciparum Dd2 growth inhibitors, dose response, SYBR Green, dry powder samples (AID 1159566).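 Further: potency for growth inhibition with lower SYBR green DNA signal.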 Type of assay: functional, cell-based.
Assay [22] relates to H9c2. The experiment in a line: cells. Type of assay: functional, cell-based. Particulars: Rattus norvegicus, H9c2, Myocardium.
Assay [23] can be described thus: MC4R antagonists, dose response, counter-screen for LGR2 antagonist project, cell-based, plate reader, cherry pick (AID 743444).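 Further: transfected HEK 293 cells stimulated with alpha-MSH peptide; potency of inhibitors of the alpha-MSH evoked signal.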 Type of assay: functional.
The nature of assay [24]: A549 cell cytotoxicity, dose response, cytotoxicity control, plate reader, cherry-pick, antagonist series (AID 743412). Type of assay: functional, cell-based.
The nature of assay [25]: LGR2 antagonists, dose response, cell-based, HEK293, CRE-luciferase reporter, cherry pick, set 2 (AID 743343).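 Further: transfected cells were stimulated with diluted bursicon conditioned medium after compound addition.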 The format is functional.

Chain of 5-hydroxytryptamine receptor 5A (P47898 whole entry): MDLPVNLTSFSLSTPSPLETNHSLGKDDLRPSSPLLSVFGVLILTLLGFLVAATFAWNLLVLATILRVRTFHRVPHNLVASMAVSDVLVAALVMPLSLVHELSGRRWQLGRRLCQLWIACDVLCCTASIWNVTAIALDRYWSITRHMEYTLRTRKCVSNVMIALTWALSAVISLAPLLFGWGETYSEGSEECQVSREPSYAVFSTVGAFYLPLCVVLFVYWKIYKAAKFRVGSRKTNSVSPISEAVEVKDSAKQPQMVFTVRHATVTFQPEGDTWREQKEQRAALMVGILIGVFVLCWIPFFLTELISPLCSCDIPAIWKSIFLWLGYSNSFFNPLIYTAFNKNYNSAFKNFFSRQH
Chain of Paired box protein Pax-8 (Q06710 whole entry): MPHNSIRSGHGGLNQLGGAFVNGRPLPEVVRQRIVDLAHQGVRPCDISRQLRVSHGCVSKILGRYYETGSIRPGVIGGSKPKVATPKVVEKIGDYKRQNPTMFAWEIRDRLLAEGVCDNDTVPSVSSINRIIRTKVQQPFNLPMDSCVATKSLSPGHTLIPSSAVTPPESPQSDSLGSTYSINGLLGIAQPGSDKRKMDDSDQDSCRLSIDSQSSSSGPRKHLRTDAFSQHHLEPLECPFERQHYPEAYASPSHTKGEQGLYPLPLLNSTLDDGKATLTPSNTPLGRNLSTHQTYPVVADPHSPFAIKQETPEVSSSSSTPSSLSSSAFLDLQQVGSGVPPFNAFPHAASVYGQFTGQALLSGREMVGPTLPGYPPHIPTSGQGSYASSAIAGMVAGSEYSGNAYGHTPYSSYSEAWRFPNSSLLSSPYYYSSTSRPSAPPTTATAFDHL
Chain of Induced myeloid leukemia cell differentiation protein Mcl-1 (Q07820 whole entry): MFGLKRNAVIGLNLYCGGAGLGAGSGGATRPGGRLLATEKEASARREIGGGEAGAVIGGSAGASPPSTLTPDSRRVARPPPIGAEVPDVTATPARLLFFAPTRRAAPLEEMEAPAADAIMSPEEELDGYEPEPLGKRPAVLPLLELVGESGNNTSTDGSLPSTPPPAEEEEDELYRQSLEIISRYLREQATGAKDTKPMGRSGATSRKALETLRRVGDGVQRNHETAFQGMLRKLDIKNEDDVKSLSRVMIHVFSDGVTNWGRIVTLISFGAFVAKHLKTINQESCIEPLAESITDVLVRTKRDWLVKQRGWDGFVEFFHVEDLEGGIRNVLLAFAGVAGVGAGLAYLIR

For `O=c1cc(-c2ccsc2)oc2cc(-c3ccc4c(c3)OCO4)ccc12`, the IC50 in assay [1] is 6.19 µM (active).

Regarding `CCC(=O)C(CCN1CCOCC1)(c1ccccc1)c1ccccc1`, the EC50 in [2] is > 92.5 µM (inactive); in [3] it was 0.376 µM (active); in [4] it was > 92.5 µM (inactive); in assay [5], 12 µM (inactive).

Turning to `CCOC(=O)/C=C1\CN(Cc2ccc(OC)cc2)S(=O)(=O)c2ccccc21`, the IC50 in [6] and in [7] was > 69.5 µM (inactive) throughout.

For the compound `Cc1nn(C)cc1CNC(=O)C1C2CCC(C2)C1C(=O)O` (stereo not given), the half-maximal cytotoxic concentration (CC50) in assay [8] is > 40 µM (active).

As for `CC(C)c1ccc(S(=O)(=O)/N=C2/C=CC(=O)c3ccccc32)cc1`, the half-maximal cytotoxic concentration (CC50) in assay [8] is 18.2 µM (active). For the same compound, the IC50 in [9] is 3.28 µM (active).

With `C[C@@H]1CN([C@H](C)CO)S(=O)(=O)c2ccc(C#CC3CCCC3)cc2O[C@H]1CN(C)Cc1cccnc1`, the half-maximal activity concentration (AC50) is 26.2 µM (active) in [10], 12.5 µM (active) in assay [11] and 50.2 µM (active) in assay [12].

For the compound `CCOC(=O)C1(Cc2ccccc2)CCN(Cc2cccn2-c2cccnc2)CC1`, the EC50 in [2] is > 92.5 µM (inactive); in assay [3], 0.841 µM (active); in [4], > 92.5 µM (inactive); in assay [5], > 92.5 µM (inactive).

In the case of `CC(C)Oc1ccc(N2CC(C(=O)NC3=NCCS3)CC2=O)cc1` (stereo not given), in [13], the IC50 is listed as > 50 µM (not active).

Take `COC(=O)c1sc(-c2ccc(Cl)cc2)cc1NC(=O)CSCC(=O)O`: the IC50 in assay [14] was 18.2 µM (inactive); in assay [15], 22.5 µM (inactive); in assay [16], 83.3 µM (inactive).

For `Cc1nn(C)cc1CN1CCC(CO)(CCOc2ccccc2)CC1`, the IC50 in [13] is given as > 50 µM (not active).

`O=C(COC(=O)c1cccc(NS(=O)(=O)/C=C/c2ccccc2)c1)Nc1ccccc1OC(F)F`: the IC50 in [6] was 36 µM (inactive); in assay [7] it was > 69.5 µM (inactive).

`COCc1cn([C@@H]2C[C@@H]3O[C@H](CO)CC[C@@H]3O[C@@H]2CCc2ccc(-c3ccc(OC)cc3)cc2)nn1`: the concentration at half-maximal activity (AC50) was 0.424 µM (active) in assay [17]; 0.782 µM (active) in assay [18]; 37.4 µM (active) in [19]; 0.571 µM (active) in assay [20]; 0.426 µM (active) in [21].

As to `O=C(CN1CCN(c2nc(-c3ccccc3)cs2)CC1)Nc1ccc(Cl)c(Cl)c1`, the results for the IC50 in assay [6] and in assay [7] were 37.8 µM (inactive) and > 69.6 µM (inactive), respectively.

With `O=C(Nc1nc(-c2ccco2)c(-c2ccco2)s1)c1ccc(F)cc1F`, the cytotoxic concentration (CC50) in [8] was > 40 µM (active).

As to `Cc1csc(-c2cnn(-c3ccccc3)c2NC(=O)c2ccc(C(F)(F)F)cc2)n1`, the IC50 in [6] is 24.7 µM (inactive); in assay [7] it was > 69.5 µM (inactive).

As to `Cc1cccc2cc(C(c3nnnn3Cc3ccccc3)N3CCN(C)CC3)c(O)nc12` (stereo not given), the EC50 in [2] was > 92.5 µM (inactive); in assay [3] it was 1.88 µM (active); in assay [4], > 92.5 µM (inactive); in assay [5] it was > 92.5 µM (inactive).

Turning to `COc1ccccc1C(=O)Nc1ccc2c(c1)C(=O)N(C)[C@@H]1CC[C@@H](CC(=O)NCc3ccc(Cl)c(Cl)c3)O[C@H]1CO2`, the results for the AC50 in assay [10], in assay [11] and in [12] were 40.8 µM (active), 1.57 µM (active) and 55.9 µM (active), respectively.

For the compound `COc1cccc(C#Cc2ccc([C@H]3[C@@H](CO)N4C(=O)CN(C(=O)c5ccccc5)C[C@H]34)cc2)c1`, the AC50 was 1.03 µM (active) in [17]; 0.791 µM (active) in [18]; 22.3 µM (active) in [19]; 0.53 µM (active) in [20]; 0.398 µM (active) in [21].

Regarding `Cc1ccc(C)c(S(=O)(=O)N(C(=O)c2ccncc2)c2ccc(OC(=O)c3ccncc3)cc2)c1`, the IC50 in assay [22] was > 79 µM (inactive). Moreover, the AC50 in assay [23] is 1.9 µM (active); in [24] it was > 52 µM (inactive); in assay [25], 4.05 µM (active).
